The text below walks through data of patent publication US6214834A, “Integrin inhibitor prodrugs” (Dupont Pharmaceuticals Company, priority 1998, dated 2001).

A short description of data set [1]: Plasma concentrations after i.v. bolus of SD209 in pigs (in vivo conversion of prodrug). More on the design: species or system Yorkshire domestic swine. Here is the method:
Data indicating conversion of the prodrug SD209 to the drug, SM256 once administered into circulation in vivo is represented in Table 5. The data in Table 5 id generated from intravenous administration of the prodrug, SD209, in pigs.
SD209 was injected intravenously at a dose of 0.5 mg/kg and plasma was seperated after blood sampling at different intervals. Following solid phase extraction of the plasma, residues were chromatographed on a supelcosil ABZ HPLC column and detected by positive ion electrospray MS/MS using a Sciex API 300. This combination provides a specific assay for both SD209 and SM256. The linear range of the assay for SM256 was from 1 ng/ml to 2000 ng/ml. Plasma concentration data for both pigs are provided below

The nature of data set [2]: Partition coefficient estimated by HPLC method. It is filed as physicochemical. The settings on record: estimated using an HPLC method; read-out: HPLC Log P.
A short description of data set [3]: Surface tension measurements (DuNouy tensiometer). It is filed as physicochemical. The settings on record: for Surface Tension: pH ~4, 22° C. Here is the method:
Surface activity behavior of the two prodrugs, SM192 and SD209 was examined using tensiometry. Stock solutions of each were prepared at a concentration of 0.06 M in water and dilutions were made using an aqueous solution of the corresponding salt counterion of the prodrug adjusted to a pH ~4. Surface tension measurements were run at 22° C. on a DuNouy tensiometer. Three measurements were run on each solution concentration.

Data set [4] can be described thus: Free solution electrophoretic mobility by capillary electrophoresis. It is filed as physicochemical. The settings on record: for Electrophoretic Mobility: 400 V/cm, 25° C. Here is the method: To obtain a preliminary indication of the feasibility of transdermal iontophoretic delivery and the possible dependence on pH, the solution mobilities of the methyl and choline esters were evaluated using capillary electrophoresis. Free solution mobilities were determined using a capillary electrophoresis instrument equipped with a u.v. detector and a cationic amine capillary column of 57 cm total length, 50 cm length to detector, 370 μm o.d.,50 μm i.d. Buffers used were pH 4.5 acetate, pH 6.0 MES and pH 8.0 TRIS. All buffer concentrations were 50 mM. Elution was at 400 V/cm and 25° C., and detection was at 214 nm. Compounds SM192 and SD209 were examined. Structures are given in Scheme 16. For each compound, 2 mg/mL stock solutions were prepared and diluted 1:1 with the running buffer. Therefore, electrophoretic mobility of compound SD209 is about two-fold higher than that of compound SM192 at all pH values examined.

Setting [5] is: pig 1, Time 10.0 hr, i.v. bolus 0.5 mg/kg of SD209.
The mark [6] stands for this setting: pig 1, Time 14.0 hr, i.v. bolus 0.5 mg/kg of SD209.
Where [7] appears, read: pig 1, Time 24.0 hr, i.v. bolus 0.5 mg/kg of SD209.
Setting [8] is: pig 2, Time 7.0 hr, i.v. bolus 0.5 mg/kg of SD209.
[9] abbreviates: pig 2, Time 10.0 hr, i.v. bolus 0.5 mg/kg of SD209.
Where [10] appears, read: pig 2, Time 14.0 hr, i.v. bolus 0.5 mg/kg of SD209.
[11] abbreviates: pig 2, Time 24.0 hr, i.v. bolus 0.5 mg/kg of SD209.

Several values for one entry are separate records, joined by “and”; a condition that tells them apart may be missing. Identical values can stand only once. Like-named read-outs stand apart in the source and are kept apart here.

Regarding `Cc1cc(C)c(S(=O)(=O)NC(CNC(=O)c2ccc3c(cnn3CCCNc3ncc[nH]3)c2)C(=O)O)c(C)c1` (centres unmarked) [SM256], the plasma conc. entry in data set [1] (setting [5]), in data set [1] (setting [6]), in data set [1] (setting [7]), in data set [1] (setting [8]), in data set [1] (setting [9]) and in data set [1] (setting [10]) was “BQL” in each case. Further, the plasma conc. result in data set [1] (setting [11]) is “BQL”.

On to `Cc1cc(C)c(S(=O)(=O)NC(CNC(=O)c2ccc3c(cnn3CCCNc3ncc[nH]3)c2)C(=O)OCC[N+](C)(C)C)c(C)c1` (centres unmarked) [SD209], for which the chromatographic logP in data set [2] is 0.95. For the same compound, the “Surface Tension” value turned out to be 72.6 ± 0.06 dynes/cm in data set [3] (Concentration 0.0015 M); 72.4 ± 0.06 dynes/cm in data set [3] (Concentration 0.003 M); 72.2 ± 0.2 dynes/cm in data set [3] (Concentration 0.010 M); 67.4 ± 0.6 dynes/cm in data set [3] (Concentration 0.015 M); 65.5 ± 0.5 dynes/cm in data set [3] (Concentration 0.030 M); 61.9 ± 0.4 dynes/cm in data set [3] (Concentration 0.045 M). The “Surface Tension” value in data set [3] (Concentration 0.054 M) worked out at 63.7 ± 0.4 dynes/cm; in data set [3] (Concentration 0.06 M), 61.2 ± 0.3 dynes/cm. The “critical micelle concentration (not attained up to)” value in data set [3] (no CMC attained even at the highest concentrations) is > 0.6 M. Besides, the plasma conc. result in data set [1] (pig 1, Time 1.0 hr, i.v. bolus 0.5 mg/kg of SD209) is recorded as “BQL”; in data set [1] (pig 1, Time 3.0 hr, i.v. bolus 0.5 mg/kg of SD209), “BQL”; in data set [1] (pig 1, Time 5.0 hr, i.v. bolus 0.5 mg/kg of SD209), “BQL”; in data set [1] (pig 1, Time 7.0 hr, i.v. bolus 0.5 mg/kg of SD209) it was “BQL”; in data set [1] (setting [5]) it was “BQL”; in data set [1] (setting [6]) it was “BQL”. Moreover, the plasma conc. result in data set [1] (setting [7]) is listed as “BQL”; in data set [1] (pig 2, Time 1.0 hr, i.v. bolus 0.5 mg/kg of SD209), “BQL”; in data set [1] (pig 2, Time 2.0 hr, i.v. bolus 0.5 mg/kg of SD209) it was “BQL”; in data set [1] (pig 2, Time 3.0 hr, i.v. bolus 0.5 mg/kg of SD209), “BQL”; in data set [1] (pig 2, Time 5.0 hr, i.v. bolus 0.5 mg/kg of SD209), “BQL”; in data set [1] (setting [8]), “BQL”. Also, the plasma conc. entry in data set [1] (setting [9]), in data set [1] (setting [10]) and in data set [1] (setting [11]) was “BQL” each time. Besides, the concentration at 0 h is < 2 ng/mL in data set [1] (pig, plasma, iv, 0.5 mg/kg, pig 1, Time 0.00 hr, i.v. bolus 0.5 mg/kg of SD209, read-out: plasma conc.) and < 2 ng/mL in data set [1] (pig, plasma, iv, 0.5 mg/kg, pig 2, Time 0.00 hr, i.v. bolus 0.5 mg/kg of SD209, read-out: plasma conc.). Moreover, the concentration at 0.1 h in data set [1] (pig, plasma, iv, 0.5 mg/kg, pig 1, Time 0.1 hr, i.v. bolus 0.5 mg/kg of SD209, read-out: plasma conc.) came to 60 ng/mL; in data set [1] (pig, plasma, iv, 0.5 mg/kg, pig 2, Time 0.1 hr, i.v. bolus 0.5 mg/kg of SD209, read-out: plasma conc.), 20 ng/mL. Also, the concentration at 0.25 h in data set [1] (pig, plasma, iv, 0.5 mg/kg, pig 1, Time 0.25 hr, i.v. bolus 0.5 mg/kg of SD209, read-out: plasma conc.) was found to be 20 ng/mL; in data set [1] (pig, plasma, iv, 0.5 mg/kg, pig 2, Time 0.25 hr, i.v. bolus 0.5 mg/kg of SD209, read-out: plasma conc.) it was 3 ng/mL. In data set [1] (pig, plasma, iv, 0.5 mg/kg, pig 2, Time 0.5 hr, i.v. bolus 0.5 mg/kg of SD209, read-out: plasma conc.), the concentration at 0.5 h was < 2 ng/mL. Also, the “in vivo conversion of prodrug to SM256 in the circulation” value in data set [1] (pigs, i.v. 0.5 mg/kg) is reported as “quantitatively converted to SM256”. The “electrophoretic mobility relative to compound SM192” value in data set [4] (higher than SM192 at all pH values examined) was “about two-fold”. In addition, the figures for the “Electrophoretic Mobility” value in data set [4] (pH 4.5 acetate buffer 50 mM), in data set [4] (pH 6.0 MES buffer 50 mM) and in data set [4] (pH 8.0 TRIS buffer 50 mM) were 3.2 (cm^2 /v/sec) × 10^-4, 3.0 (cm^2 /v/sec) × 10^-4 and 2.3 (cm^2 /v/sec) × 10^-4, respectively.

As for `COC(=O)C(CNC(=O)c1ccc2c(cnn2CCCNc2ncc[nH]2)c1)NS(=O)(=O)c1c(C)cc(C)cc1C` (centres unmarked) [SM192], the chromatographic logP in data set [2] is 3.73. Further, the “Surface Tension” value amounted to 73.0 ± 0.2 dynes/cm in data set [3] (Concentration 0.00015 M); 73.0 ± 0.2 dynes/cm in data set [3] (Concentration 0.0003 M); 72.3 ± 0.1 dynes/cm in data set [3] (Concentration 0.0006 M); 69.3 ± 0.6 dynes/cm in data set [3] (Concentration 0.001 M); 69.1 ± 0.6 dynes/cm in data set [3] (Concentration 0.0015 M); 61.7 ± 0.2 dynes/cm in data set [3] (Concentration 0.003 M). Further, the “Surface Tension” value in data set [3] (Concentration 0.006 M) worked out at 56.9 ± 0.4 dynes/cm; in data set [3] (Concentration 0.010 M) it was 53.5 ± 0.3 dynes/cm; in data set [3] (Concentration 0.015 M), 51.5 ± 0.1 dynes/cm; in data set [3] (Concentration 0.030 M), 50.4 ± 0.2 dynes/cm; in data set [3] (Concentration 0.045 M), 49.8 ± 0.4 dynes/cm; in data set [3] (Concentration 0.054 M) it was 50.0 ± 0.6 dynes/cm. Besides, the “Surface Tension” value in data set [3] (Concentration 0.06 M) is 49.5 ± 0.3 dynes/cm. In addition, the “critical micelle concentration (CMC)” value in data set [3] (from surface tension vs concentration) was ~ 16 mM and ~ 11 mg/mL. Moreover, the results for the “Electrophoretic Mobility” value in data set [4] (pH 4.5 acetate buffer 50 mM), in data set [4] (pH 6.0 MES buffer 50 mM) and in data set [4] (pH 8.0 TRIS buffer 50 mM) were 1.7 (cm^2 /v/sec) × 10^-4, 1.6 (cm^2 /v/sec) × 10^-4 and 1.1 (cm^2 /v/sec) × 10^-4, respectively.
